Experimental data taken from patent US20040175368A1 (Wisconsin Alumni Research Foundation, priority 2001, published 2004).

How the values were obtained:
murine CFU-GM cells = assay: Dye-sensitized photoinactivation of normal hematopoietic CFU-GM cells, in vitro clonal assay; format: cell-based; conditions: 1.0×10^−6 M dye, 12% FBS, light up to 90 min (FIG. 3 lower panel)
RBL cells = assay: Two-photon laser scanning microscopy of intracellular dye distribution; format: cell-based, rat; conditions: 0.2 μM dye; for intracellular distribution of dye fluorescence: 10 minutes incubation
Procedure: RBL cells were incubated in the dark at a concentration of 1.1×10^5 cells/mL for periods ranging from 1 minute to 1 hour with fresh growth media containing 0.2 μM CV^+or Ev^+and subsequently incubated for 30 minutes in the dark with fresh growth media containing 0.05 μM Rh123; After a final cycle of washing and incubation for 15 minutes in fresh growth media, the media were replaced by modified Tyrode's solution containing 5 mM glucose and bovine serum albumin, and the cells were subjected to two-photon imaging. The examination of TAM^+accumulation into mitochondria was carried out through the comparison of the spatial distribution of the fluorescence of these dyes in the cellular environment with that of Rh123 (a classical mitochondrial marker^1,3) and the endogenous NAD(P)H. Fluorescence distributions within living RBL cells were obtained with a laser scanning multiphoton microscope (Bio-Rad MP1024). […] Three external detectors located in the Fourier plane of the microscope and equipped with appropriate sets of longpass dichroic and bandpass filters (from Chroma) were used for the simultaneous detection of two-photon excited fluorescence of NAD(P)H (400-500 nm), Rh123 (520-550 nm), and CV^+or EV^+(600-660 nm). To obtain sufficient fluorescence from CV^+,EV^+, and cellular NAD(P)H autofluorescence (all inefficient fluorophores), average excitation powers of approximately 18 mW were required. […]
Two-photon laser scanning microscopy^22,28 was used to obtain information on intracellular distribution and mitochondrial accumulation of CV^+and EV^+in RBL cells. […] Simultaneous two-photon images of NAD(P)H, Rh123, and TAM^+fluorescence were obtained by exciting RBL cells at 750 nm with a Ti:Sapphire laser (75 fs, 80 MHz, 18 mW) as the excitation source. No morphologic alterations or induction of fluorescence attributed to cellular photodamage was observed during the brief imaging period (approximately 3 seconds), and the bleaching of the three fluorophores was also negligible during this period. […]

L1210 cells = assay: Uptake of dye by L1210 cells; format: cell-based, murine; conditions: for Dye Uptake by L1210 Cells: 1 hour at 37° C. in the dark, 12% FBS
Procedure: L1210 cells were suspended at a concentration of 1.0×10^6 cells/mL in HEPES-buffered (10 mM, pH 7.4) alpha-medium supplemented with FBS (12%), and the TAM^+dyes were added from 1.0×10^−4M stock solutions in 50% ethanol to final concentrations of […]. The cells were subsequently incubated in the dark for 1 hour at 37° C., pelleted, washed with dye-free medium, and extracted with ethanol (1 mL per […]). The dye content of each extract was determined spectrophotometrically using calibration curves assembled using suitable dilutions of authentic dye in ethanol extracts of cells that had been incubated in dye-free medium.

[1] = Photobleaching quantum efficiency of TAM+ dyes noncovalently bound to BSA (532-nm laser photolysis); format: physicochemical
Procedure: Spectrophotometric studies were performed with a Shimadzu UV-2101PC spectrophotometer. 1-Octanol/water partition coefficients^18 (P), were determined at 25° C. using equal volumes of water and 1-octanol. Typically, five distinct solutions of each dye in the concentration range between 1 μM and 10 μM were prepared in deionized water and subsequently equilibrated with 1-octanol. After the equilibrium was reached, the final dye concentrations in the aqueous and/or organic phases were determined by absorption spectroscopy. For the measurement of photobleaching quantum efficiencies, the samples were placed in standard 10-mm (optical path) quartz cells at a distance of approximately 10 cm from the light source and photolyzed using the 532-nm line of an Nd:YAG laser model 7010 from Continuum operating at a repetition rate of 10 Hz. The defocused laser beam (circular profile with a diameter of about 5 mm) was directed to the center of the quartz cell. The absolute photolysis energy (or the number of 532-nm photons per laser pulse) was kept constant over the course of any specific experiment. The temperature-controlled cell holder allowed continuous magnetic stirring of the samples during photolysis. The photobleaching quantum efficiencies were based on the photobleaching efficiency of a classical chemical actinometer, potassium ferrioxalate, ^19,20 and determined considering only the first 5 to 10% decrease in dye concentration. The photolysis energy was adjusted to appropriate levels with the use of a calibrated solid-state joulemeter model PM30VI from Molectron.
To explore how the photoreactivity of the TAM^+dyes in complex biologic environments correlates with the observed phototoxic effects toward tumor and normal cells, the photo-bleaching efficiency of TAM^+dyes noncovalently bound to a model biologic host (bovine serum albumin, BSA) was measured. For the case of CFU-GM cells, the efficacy of photoinduced cell destruction mediated by TAM^+dyes precisely paralleled the photochemical reactivity of these photosensitizers. Both, phototoxicity (FIG. 3, lower panel) and photoreactivity (Table 1) followed the decreasing order EV^+>VPBBO^+>CV^+>VBR^+.

Row | quantum efficiency of photobleaching, nitrogen-purged relative to air-equilibrated samples ([1]; BSA-bound) | photobleaching efficiency of dimer relative to monomer ([1]; BSA-bound, air-equilibrated) | photobleaching efficiency of BSA-bound dimer ([1]; air-equilibrated samples, dimer) | photobleaching efficiency of BSA-bound monomer ([1]; air-equilibrated samples, monomer) | SMILES | phototoxicity toward normal hematopoietic CFU-GM cells (in words) (murine CFU-GM cells) | intracellular distribution of dye fluorescence (RBL cells) | Dye Uptake by L1210 Cells (L1210 cells) [molecules/cell] | effect on mitochondria after prolonged incubation (RBL cells; 1 hour incubation, then 0.05 μM Rh123) | relative efficiency of uptake by L1210 cells (in words) (L1210 cells; among the TAM+ dyes tested) | phototoxicity toward normal hematopoietic CFU-GM cells (in words) (murine CFU-GM cells; listed as VPBBO+)
1 | – | – | – | – | CCN(CC)c1ccc(C(=C2C=CC(=[N+](CC)CC)C=C2)c2ccc(N(CC)CC)cc2)cc1 [EV^+, ethyl violet] | phototoxic toward both cell lines | also accumulates into cell mitochondria | 1.76e+08 | – | – | –
2 | twofold higher | eightfold higher | 1.1×10^−4 | 1.3×10^−5 | CN(C)c1ccc(C(=C2C=CC(=[N+](C)C)C=C2)c2ccc(N(C)C)cc2)cc1 [CV^+, crystal violet] | comparatively small toxic effects | consistent with mitochondrial localization | 2.14e+08 | mitochondrial inner membrane potential has been reduced | most efficiently taken up by L1210 cells | –
3 | – | – | – | – | CCN=C1C=CC(=C(c2ccc(N(CC)CC)cc2)c2ccc(N(CC)CC)cc2)c2ccccc21.Cl [VPBBO^+, victoria pure blue BO] | considerably more efficient in inactivating normal hematopoietic cells | – | 1.16e+08 | – | – | intermediate efficacy
4 | – | – | – | – | CCN=C1C=CC(=C(c2ccc(N(C)C)cc2)c2ccc(N(C)C)cc2)c2ccccc21.Cl [VBR^+, victoria blue R] | lowest efficacy | – | 8.8e+07 | – | – | –
